US11827917B1, “Methods for the conversion of fermentable sugars to ethanol” (Colorado State University Research Foundation, priority 2020, dated 2023)
Marks after values point to notes of the source that are not given here.

Experiments:
Assay in all cases: Serum-bottle cultivation in YPD, different yeast strains
Details in all cases: 0.2%
[1] = test system: S. paradoxus JAY 1502; assay type: cell-based
Method: (§1) Analytical methods: Cell growth was evaluated by monitoring OD600 and cell dry mass concentration. For dry mass measurements, 1.0 mL of culture was transferred to a pre-dried and pre-weighed 2-mL centrifuge tube. The tubes were centrifuged for 10 min at 14000 rpm using a microcentrifuge, and then the cell pellets were dried in an oven for 3 days at 65° C. The cell dry mass was determined by subtracting the initial tube mass from the dried mass of tube with cells. The concentrations of glucose, ethanol, and glycerol were measured via HPLC (Shimadzu LC20A series) outfitted with a refractive index detector and using an Aminex HPX-87H (300×7.8 mm) organic acid column and Cation H+ guard cartridge (Bio Rad Laboratories, Hercules, CA). The column was maintained at 65° C. and the mobile phase was 5 mM sulfuric acid with a flow rate of 0.6 mL/min. Standard compound solutions were used to calibrate the HPLC. Each sample was analyzed three times by HPLC.
(§2) Procedure: Seven yeast strains (S. cerevisiae ATCC 26603, S. cerevisiae JAY 238, S. cerevisiae JAY 240, S. cerevisiae JAY 241, S. paradoxus JAY 1502, S. kudriavzezii JAY 1503, and S. mikatae JAY 1504) were pre-cultured in 30 mL of YPD medium in 100 mL serum bottle overnight in a shaker at 30° C. and 200 rpm. The precultured yeast cells of each strains were collected and washed twice. Finally, the cell pellet was resuspended in about 10 mL 0.8% (w/v) NaCl and the OD600 measured. TyrOH, PheOH, and TrpOH were added to 30 mL of YPD medium in 100-mL serum bottles at 0.2% (w/v) respectively. The same amount of DMSO was added in YPD medium and served as control to the TrpOH and TyrOH treatments. The prepared yeast cells were added to obtain the initial cell concentration at OD600=0.2. The serum bottles were sealed and cultured in a shaker at 30° C. and 200 rpm for 24 h. There were three biological replicates for each treatment.

[2] = test system: S. kudriavzezii JAY 1503; assay type: cell-based
Method: as §1, §2

[3] = test system: S. mikatae JAY 1504; assay type: cell-based
Method: as §1, §2

[4] = test system: S. cerevisiae JAY 241; assay type: cell-based, Saccharomyces cerevisiae
Method: as §1, §2

[5] = test system: S. cerevisiae ATCC 26603; assay type: cell-based, Saccharomyces cerevisiae
Method: as §1, §2

[6] = test system: S. cerevisiae JAY 238; assay type: cell-based, Saccharomyces cerevisiae
Method: as §1, §2

[7] = test system: S. cerevisiae JAY 240; assay type: cell-based, Saccharomyces cerevisiae
Method: as §1, §2

[8] = S. paradoxus JAY 1502, YPD (Table 9B)
[9] = S. cerevisiae JAY 241, YPD (Table 9B)
[10] = S. cerevisiae ATCC 26603, YPD (Table 9B)
[11] = S. cerevisiae JAY 238, YPD (Table 9B)
[12] = S. cerevisiae JAY 240, YPD (Table 9B)

## OCCc1c[nH]c2ccccc12 [TrpOH, tryptophol]
[1]; S. paradoxus JAY 1502
  Biomass Yield: 0.038 ± 0.001 g/g
  Biomass yield % change vs. control: −42* %
  EtOH yield: 0.417 ± 0.056 g/g
  EtOH yield % change vs. control: +7.2* %
  Glycerol yield increase from control: 71%
[1]; S. paradoxus JAY 1502, YPD
  DCW: 1.40 mg
  DCW Δ vs. ref: 52.8%
  OD600: 0.40
  OD600 Δ vs. ref: 18.0%
[1]; [8]
  Biomass Yield: 0.038 + 0.001 g/g
  Biomass yield Δ vs. ref: −42.0%
  Ethanol yield: 0.417 ± 0.056 g/g
  Ethanol yield Δ vs. ref: 7.2%
[2]; S. kudriavzezii JAY 1503
  Cell growth: very low cell growth
[2]; S. kudriavzezii JAY 1503, YPD
  DCW: 0.48 mg
  DCW Δ vs. ref: 18.6%
  OD600: 0.16
  OD600 Δ vs. ref: 9.9%
[3]; S. mikatae JAY 1504
  Cell growth: very low cell growth
[3]; S. mikatae JAY 1504, YPD
  DCW: 1.45 mg
  DCW Δ vs. ref: 43.3%
  OD600: 0.64
  OD600 Δ vs. ref: 28.1%
[4]; S. cerevisiae JAY 241
  Biomass Yield: 0.063 ± 0.004 g/g
  Biomass yield % change vs. control: +8.6%
  EtOH yield: 0.435 ± 0.035 g/g
  Glycerol yield: 0.041 ± 0.004 g/g
  Glycerol yield % change vs. control: −26* %
[4]; S. cerevisiae JAY 241, YPD
  DCW Δ vs. ref: 58.5%
  OD600: 1.00
  OD600 Δ vs. ref: 50.1%
[4]; [9]
  Biomass Yield: 0.063 + 0.004 g/g
  Biomass yield Δ vs. ref: 8.6%
  Ethanol yield: 0.435 ± 0.035 g/g
  Ethanol yield Δ vs. ref: 13.8%
  Glycerol yield: 0.041 ± 0.004 g/g
  Glycerol yield Δ vs. ref: −25.72%
[5]; S. cerevisiae ATCC 26603
  Biomass Yield: 0.059 ± 0.001 g/g
  Biomass yield % change vs. control: −17* %
  EtOH yield: 0.495 ± 0.008 g/g
  Glycerol yield: 0.054 ± 0.005 g/g
  Glycerol yield % change vs. control: −25* %
[5]; S. cerevisiae ATCC 26603, YPD
  DCW: 1.13 mg
  DCW Δ vs. ref: 64.2%
  OD600: 0.77
  OD600 Δ vs. ref: 54.8%
[5]; [10]
  Biomass Yield: 0.059 + 0.001 g/g
  Biomass yield Δ vs. ref: −16.7%
  Ethanol yield: 0.495 ± 0.008 g/g
  Ethanol yield Δ vs. ref: 14.2%
  Glycerol yield: 0.054 ± 0.005 g/g
  Glycerol yield Δ vs. ref: −24.74%
[6]; S. cerevisiae JAY 238
  Biomass Yield: 0.060 ± 0.000 g/g
  Biomass yield % change vs. control: −12* %
  EtOH yield: 0.482 ± 0.017 g/g
  Glycerol yield: 0.023 ± 0.002 g/g
  Glycerol yield % change vs. control: −49* %
  Glycerol yield decrease from control: 42%
[6]; S. cerevisiae JAY 238, YPD
  DCW: 1.30 mg
  DCW Δ vs. ref: 46.4%
  OD600: 0.39
  OD600 Δ vs. ref: 16.7%
[6]; [11]
  Biomass Yield: 0.060 + 0.000 g/g
  Biomass yield Δ vs. ref: −11.8%
  Ethanol yield: 0.482 ± 0.017 g/g
  Ethanol yield Δ vs. ref: 14.7%
  Glycerol yield: 0.020 ± 0.002 g/g
  Glycerol yield Δ vs. ref: −48.90%
[7]; S. cerevisiae JAY 240
  Biomass Yield: 0.055 ± 0.006 g/g
  Biomass yield % change vs. control: −24* %
  EtOH yield: 0.464 ± 0.053 g/g
  Glycerol yield: 0.035 ± 0.000 g/g
  Glycerol yield % change vs. control: −12* %
[7]; S. cerevisiae JAY 240, YPD
  DCW: 1.55 mg
  DCW Δ vs. ref: 50.8%
  OD600: 1.12
  OD600 Δ vs. ref: 45.0%
[7]; [12]
  Biomass Yield: 0.055 + 0.006 g/g
  Biomass yield Δ vs. ref: −23.5%
  Ethanol yield: 0.464 ± 0.053 g/g
  Ethanol yield Δ vs. ref: 14.5%
  Glycerol yield: 0.035 ± 0.000 g/g
  Glycerol yield Δ vs. ref: −11.63%
